# Test results reported in US20070225213A1, “Nucleic acid carriers for delivery of therapeutic agents” (priority 2006, published 2007).
# Legend:
# [1] = In vivo MTN recovery in mouse urine after single i.v. dose (Example 17)
# Method: NAC-MTN or MTN alone was administered intravenously to mice via the tail vein. […] After 2 hours, NAC-MTN or MTN was detected in urine, quantified by absorbance at 665 nm, and reported as % of total.
# Procedure. […] White mice, n=2 were tail vein injected with 0.25 ml of either NAC-MTN or MTN alone. […] MTN was quantified in mouse urine by absorbance of 0.2 ml sample at 665 nm, and converted to mg/ml using an MTN standard curve.
# To determine if NAC-MTN was excreted in urine as a complex, MTN fluorescence due to unbound NAC was assayed by an addition method. DNA was added to urine from both groups and subsequent change in fluorescence was measured.
# 3T3 = assay: Cell uptake by MTN fluorescence EX620/EM680 (Examples 10 and 13, EX051605); assay type: cell-based, mouse; conditions: 10% w/w loading in DNA
# Method: (§1) Materials: HSGDNA, MTN, ODNAS1116 (phosphorothioated, single stranded DNA, and Beta-cyclodextrin polymer (BCD-SBE, KKBIOMED Inc.) were previously prepared in water at 10 mg/ml, 1 mg/ml, 0.95 mg/ml, and 10 mg/ml respectively.
# (§2) Procedure: For NAC-MTN, combined 37 ul HSGDNA (herring genomic DNA, Promega Inc.), 1426 ul HBSS( Hank's buffered saline, Sigma-Aldrich), with 37 ul of MTN, followed by 1500 ul 2× DMEM media to give 3 ml final and 24 uM (24 micro-molar) MTN and 10% w/w drug loading of MTN. For NAC-MTN (AR1505) combined 62 ul of HSDNA (deg. herring sperm DNA, Sigma) with 2377 ul HBSS, 61.7 ul MTN, 2500 ul 2× media to give 5 ml final and 24 uM MTN and 10% w/w drug loading of MTN to HSDNA. […]
# (§3) Plate#1 Media was aspirated and cells treated with 100 ul of either NAC-MTN, CD-MTN, or MTN at 24 uM MTN final or 12.3 ug/ml MTN in all samples. Samples containing MTN were incubated 4 hours, removed, and fluorescence taken at EX620/EM680. […]
# (§4) Samples were incubated 4 hours, removed, and MTN fluorescence taken at EX620/EM680. […] Average MTN fluorescence was averaged from 6 wells. For each cell type, MTN fluorescence was highest in MTN treated cells, followed by CD-MTN, and lowest in NAC-MTN. […]
# (§5) PLATE#2: Dispensed 50 ul from source plate into plate #2 to give 150 ul final vol 4.1 ug/ml, 8 uMfinal per well, pre-read fluorescence w samples (bkgd) incubated 5 hr, removed, replaced w/ media, read fluor. […]
# [2] = in vivo, iv
# Method: Differential targeting and distribution of NAC-MTN or MTN in major organs of the mouse. NAC-MTN or MTN was administered intravenously to mice and detected in major organs after 24 hours. […] Total MTN in tissues was quantified by MTN fluorescence, normalized against total tissue weight, and reported as MTN mg/g tissue.
# Mice n=2, were injected i.v. with repeated dose of either NAC-MTN or MTN alone. MTN administered was the same for each mouse.
# A 0.4 ml volume of each NAC-MTN or MTN formulation was prepared for injection in HBSS or H2O (Hanks Buffered Saline, Sigma-Aldrich) as indicated below. For NAC-MTN injection, 45 ul 10 mg/ml MTN was diluted first in 325 ul of HBSS solution, then 180 ul of herring sperm DNA (HSDNA, 50 mg/ml stock neutralized, 0.2 um filtered) was added to give a turquoise blue color. […] In MTN injection, 45 ul 10 mg/ml MTN was diluted in 385 ul of H2O.
# On day 1, white mice, n=2, 24 g each, were tail vein injected by a micro-catheter with 0.16 ml at 14:50 or 0.15 ml at 15:30, respectively of either NAC-MTN or MTN. A second injection was followed at 17:00 and 16:50 of 0.2 ml each of NAC-MTN or MTN. To quantify total MTN retained, mouse urine was collected after 1st and 2nd injection. Total MTN was assayed in mouse urine immediately after 1st injection and second injection by reading MTN fluorescence 620/680 s=50 of a 0.2 ml sample in a styrene well, bottom read. […] A third dose of 0.2 ml was given the next morning, 22 hours after 1st injection (day 2), of either NAC-MTN or MTN. […] Twenty four hours after first injection (day 2), mice were sacrificed and MTN assayed in major organs. The liver, kidneys, heart, and lung were homogenized at high speed 50,000 rpm, and treated with 1% SDS (sodium dodecyl sulfate). The homogenates were frozen twice and centrifuged for 30 minutes at 14000 rcf.
# COS7 = assay: Cell uptake by MTN fluorescence EX620/EM680 (Examples 10 and 13, EX051605); assay type: cell-based, green monkey; conditions: 10% w/w loading in DNA
# Method: as §1, §2, §3, §4, §5
# BHK21 = assay: Effect of plating time on uptake of NAC-MTN and MTN, fluorescence (Example 11); assay type: cell-based, hamster
# Method: The effect of plating time on the differential rates of uptake between NAC-MTN and MTN were assayed in cells treated <1 hour and 24 hours after plating.
# On day 1, MCF7, COS7, 3T3, and BHK21 cells were plated out in a standard tissue culture plate. After incubation of 20 minutes samples were added to cells in rows A, C, E, and G. Cells were incubated at 37C in a standard atmosphere of 5%CO2.
# On day 2, samples were added to rows D, F, and H and the fluorescence was obtained EX620/EM680 S=80. Samples were removed from A,C,E and G, replaced with media and fluorescence read again. On day 2 observed significant drug toxicity in cells of rows A,C, E, G. Sample addition was postponed in row B since MCF7 were not yet confluent.
# On day 3, added samples to cells in row B containing confluent MCF7's, removed samples from rows D, F, and H replaced with media and read fluorescence.
# Fluorescence data from cells taken after removal of media was used to quantitate total MTN retained in the cells. Fluorescence data were converted to mg/ml MTN using a standard curve prepared with free MTN or NAC-MTN.
# The percentage difference in fluorescence between cells treated with NAC-MTN or MTN alone was used to compare relative drug uptake.
# The MTN fluorescence ratios were obtained by dividing MTN fluorescence of cells incubated for 24 hours by fluorescence of cells incubated 30 minutes. […] The uptake in BHK21 was roughly equivalent for NAC-MTN regardless of plate adherence, however it should be noted that BHK21 adhere very rapidly to the plate.
# Fluorescence data were converted to micromolar drug concentrations (uM MTN) using a standard curve for either nucleic acid bound or unbound drug, and drug uptake ratios were obtained by dividing the t(24 hour)/t(30 min.). The ratios of absolute drug concentration per well show more dramatic differences in uptake as shown below.
# [3] = Elapsed Time 2.5 hr, 0.281 mg MTN i.v.
compound,measurement,setting,value
"O=C1c2c(O)ccc(O)c2C(=O)c2c(NCCNCCO)ccc(NCCNCCO)c21 [MTN, mitoxantrone]",FLUOR. (mouse urine),[1]; [3],4086
same,MTN % recov. in urine (% of total dose),[1]; [3],1.9%
same,FLUOR. (mouse urine),[1]; Elapsed Time 5 hr,4405
same,MTN % recov. in urine (% of total dose),[1]; Elapsed Time 5 hr,1.6%
same,FLUOR. (mouse urine),[1]; Elapsed Time 8 hr,4455
same,MTN % recov. in urine (% of total dose),[1]; Elapsed Time 8 hr,3.8%
same,% reduction in fluorescence relative to MTN alone (MTN = 0%),"3T3; Plate#1, 24 uM MTN, 4 hours",0%
same,% reduction in fluorescence relative to MTN alone (MTN = 0%),"3T3; Plate#2, 8 uM MTN",0%
same,toxic effects in mouse,[2],Neither mouse showed any toxic effects
same,% reduction in fluorescence relative to MTN alone (MTN = 0%),"COS7; Plate#1, 24 uM MTN, 4 hours",0%
same,% reduction in fluorescence relative to MTN alone (MTN = 0%),"COS7; Plate#2, 8 uM MTN",0%
same,MTN FLUOR Ratio of t(24)/t(<1),BHK21,0.73
same,FLUOR (MTN fluorescence in cells),BHK21; cells treated 24 hour after plating,10746
same,FLUOR (MTN fluorescence in cells),BHK21; cells treated <1 hour after plating,9557
same,Ratio uM MTN of t(24)/t(<1),BHK21; from standard curve for bound or unbound drug,1.2
